{"source": "ChEMBL document CHEMBL2010722", "about": "“Structure-activity relationship study of beta-carboline derivatives as haspin kinase inhibitors” (Bioorg Med Chem Lett, 2012)", "key": {"Liver": {"tested_on": "Liver", "assay": "Intrinsic clearance in mouse liver microsome at 3 uM", "format": "ADME", "conditions": "microsomes"}, "[1]": {"tested_on": "Tyrosine-protein kinase ABL1 (Homo sapiens), P00519 [T315I]", "assay": "Inhibition of ABL T315I mutant at 10 uM"}, "[2]": {"tested_on": "ALK tyrosine kinase receptor (Homo sapiens), Q9UM73 [F1174L]", "assay": "Inhibition of ALK F1174L mutant at 10 uM"}, "[3]": {"target": "Protein-tyrosine kinase 6 (Homo sapiens) (UniProt Q13882)", "sequence (Q13882 whole entry, looked up)": "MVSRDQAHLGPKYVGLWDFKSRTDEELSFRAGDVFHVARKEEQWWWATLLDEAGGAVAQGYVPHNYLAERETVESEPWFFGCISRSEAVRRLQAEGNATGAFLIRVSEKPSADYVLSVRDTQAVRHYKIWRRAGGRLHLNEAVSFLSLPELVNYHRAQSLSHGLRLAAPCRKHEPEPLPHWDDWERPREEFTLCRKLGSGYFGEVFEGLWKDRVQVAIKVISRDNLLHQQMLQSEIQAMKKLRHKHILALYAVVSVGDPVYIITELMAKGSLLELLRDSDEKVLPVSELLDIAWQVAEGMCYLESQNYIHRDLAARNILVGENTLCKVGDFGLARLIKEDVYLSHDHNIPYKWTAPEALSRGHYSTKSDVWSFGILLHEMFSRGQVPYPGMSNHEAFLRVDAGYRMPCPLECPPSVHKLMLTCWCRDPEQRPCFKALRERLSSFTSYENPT", "assay": "Inhibition of BRK at 10 uM"}, "[4]": {"target": "Tyrosine-protein kinase CSK (Homo sapiens) (UniProt P41240)", "assay": "Inhibition of CSK at 10 uM"}, "[5]": {"target": "Megakaryocyte-associated tyrosine-protein kinase (Homo sapiens) (UniProt P42679)", "assay": "Inhibition of CTK at 10 uM"}, "[6]": {"tested_on": "Epidermal growth factor receptor (Homo sapiens), P00533 [L858R]", "assay": "Inhibition of EGFR L858R mutant at 10 uM", "format": "protein assay"}, "[7]": {"tested_on": "Epidermal growth factor receptor (Homo sapiens), P00533 [T790M]", "assay": "Inhibition of EGFR T790M mutant at 10 uM", "format": "protein assay"}, "[8]": {"target": "Ephrin type-A receptor 2 (Homo sapiens) (UniProt P29317)", "assay": "Inhibition of EPHA2 at 10 uM"}, "[9]": {"target": "Fibroblast growth factor receptor 1 (Homo sapiens) (UniProt P11362)", "assay": "Inhibition of FGFR1 at 10 uM"}, "[10]": {"target": "Receptor-type tyrosine-protein kinase FLT3 (Homo sapiens) (UniProt P36888)", "assay": "Inhibition of FLT3 at 10 uM"}, "[11]": {"target": "Receptor tyrosine-protein kinase erbB-4 (Homo sapiens) (UniProt Q15303)", "assay": "Inhibition of HER4 at 10 uM"}, "[12]": {"target": "Tyrosine-protein kinase JAK3 (Homo sapiens) (UniProt P52333)", "assay": "Inhibition of JAK3 at 10 uM"}, "[13]": {"tested_on": "Mast/stem cell growth factor receptor Kit (Homo sapiens), P10721 [V654A]", "assay": "Inhibition of KIT V654A mutant at 10 uM"}, "[14]": {"target": "Leukocyte tyrosine kinase receptor (Homo sapiens) (UniProt P29376)", "assay": "Inhibition of LTK at 10 uM"}, "[15]": {"tested_on": "Hepatocyte growth factor receptor (Homo sapiens), P08581 [Y1235D]", "assay": "Inhibition of MET Y1235D mutant at 10 uM"}, "[16]": {"target": "Platelet-derived growth factor receptor alpha (Homo sapiens) (UniProt P16234)", "assay": "Inhibition of PDGFRa at 10 uM"}, "[17]": {"target": "Proto-oncogene tyrosine-protein kinase receptor Ret (Homo sapiens) (UniProt P07949)", "assay": "Inhibition of RET at 10 uM"}, "[18]": {"target": "Macrophage-stimulating protein receptor (Homo sapiens) (UniProt Q04912)", "sequence (Q04912 25-304 limits assumed)": "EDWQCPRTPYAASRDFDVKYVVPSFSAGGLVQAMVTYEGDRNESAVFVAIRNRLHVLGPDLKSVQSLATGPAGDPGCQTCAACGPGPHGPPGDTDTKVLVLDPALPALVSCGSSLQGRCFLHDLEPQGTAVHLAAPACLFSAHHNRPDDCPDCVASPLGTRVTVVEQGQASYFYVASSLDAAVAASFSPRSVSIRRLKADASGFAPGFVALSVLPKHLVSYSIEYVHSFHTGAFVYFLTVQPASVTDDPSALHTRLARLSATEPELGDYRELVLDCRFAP", "sequence (Q04912 310-1400 limits assumed)": "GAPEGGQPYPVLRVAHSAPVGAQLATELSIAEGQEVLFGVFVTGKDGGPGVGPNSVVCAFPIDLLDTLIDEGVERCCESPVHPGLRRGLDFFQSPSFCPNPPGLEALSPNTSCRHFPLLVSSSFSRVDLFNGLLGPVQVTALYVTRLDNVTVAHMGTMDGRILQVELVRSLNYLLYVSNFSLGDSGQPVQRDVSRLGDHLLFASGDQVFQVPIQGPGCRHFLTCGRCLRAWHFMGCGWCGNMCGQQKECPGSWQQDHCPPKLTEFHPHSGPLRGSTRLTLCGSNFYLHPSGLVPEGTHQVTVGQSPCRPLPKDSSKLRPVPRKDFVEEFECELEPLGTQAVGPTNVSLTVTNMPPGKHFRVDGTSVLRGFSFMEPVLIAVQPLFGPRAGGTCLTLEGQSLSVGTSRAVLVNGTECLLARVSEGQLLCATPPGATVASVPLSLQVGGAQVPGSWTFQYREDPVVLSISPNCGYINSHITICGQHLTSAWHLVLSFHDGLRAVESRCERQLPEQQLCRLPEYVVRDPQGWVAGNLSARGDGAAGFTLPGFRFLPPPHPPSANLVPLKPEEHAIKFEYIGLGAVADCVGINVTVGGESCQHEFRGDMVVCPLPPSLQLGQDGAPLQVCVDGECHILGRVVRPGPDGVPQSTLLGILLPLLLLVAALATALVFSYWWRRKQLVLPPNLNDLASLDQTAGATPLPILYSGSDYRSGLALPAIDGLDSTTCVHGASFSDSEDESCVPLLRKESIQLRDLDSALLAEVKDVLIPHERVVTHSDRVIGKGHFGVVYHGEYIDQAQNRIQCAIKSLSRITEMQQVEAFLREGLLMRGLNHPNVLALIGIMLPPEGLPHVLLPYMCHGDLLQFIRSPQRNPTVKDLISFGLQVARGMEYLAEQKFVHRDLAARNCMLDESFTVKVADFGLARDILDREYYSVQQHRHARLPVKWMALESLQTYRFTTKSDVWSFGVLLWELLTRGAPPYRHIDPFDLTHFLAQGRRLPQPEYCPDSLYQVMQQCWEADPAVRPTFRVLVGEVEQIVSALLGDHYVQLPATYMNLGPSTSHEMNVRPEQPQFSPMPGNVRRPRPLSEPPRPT", "assay": "Inhibition of RON at 10 uM"}, "[19]": {"target": "Tyrosine-protein kinase SYK (Homo sapiens) (UniProt P43405)", "assay": "Inhibition of SYK at 10 uM"}, "[20]": {"target": "RAC-alpha serine/threonine-protein kinase (Homo sapiens) (UniProt P31749)", "sequence (P31749 whole entry)": "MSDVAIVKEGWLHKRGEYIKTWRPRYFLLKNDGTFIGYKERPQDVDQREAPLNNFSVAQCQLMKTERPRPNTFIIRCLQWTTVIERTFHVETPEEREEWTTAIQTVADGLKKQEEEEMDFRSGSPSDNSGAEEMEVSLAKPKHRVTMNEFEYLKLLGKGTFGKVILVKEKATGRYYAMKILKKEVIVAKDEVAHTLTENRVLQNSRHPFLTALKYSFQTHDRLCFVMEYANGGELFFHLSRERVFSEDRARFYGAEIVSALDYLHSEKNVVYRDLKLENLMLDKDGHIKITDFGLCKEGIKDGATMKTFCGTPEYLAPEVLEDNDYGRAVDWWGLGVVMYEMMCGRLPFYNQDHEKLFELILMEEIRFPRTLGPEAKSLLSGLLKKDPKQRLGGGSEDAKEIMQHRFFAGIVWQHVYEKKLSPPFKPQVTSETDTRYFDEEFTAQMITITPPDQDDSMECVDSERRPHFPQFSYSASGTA", "assay": "Inhibition of AKT1 at 10 uM"}, "[21]": {"target": "RAC-beta serine/threonine-protein kinase (Homo sapiens) (UniProt P31751)", "assay": "Inhibition of AKT2 at 10 uM"}, "[22]": {"target": "Calcium/calmodulin-dependent protein kinase type 1D (Homo sapiens) (UniProt Q8IU85)", "assay": "Inhibition of CaMK1d at 10 uM"}, "[23]": {"target": "Calcium/calmodulin-dependent protein kinase type II subunit beta (Homo sapiens) (UniProt Q13554)", "assay": "Inhibition of CaMK2b at 10 uM"}, "[24]": {"target": "Calcium/calmodulin-dependent protein kinase type II subunit delta (Homo sapiens) (UniProt Q13557)", "assay": "Inhibition of CaMK2d at 10 uM"}, "[25]": {"target": "Calcium/calmodulin-dependent protein kinase type IV (Homo sapiens) (UniProt Q16566)", "assay": "Inhibition of CaMK4 at 10 uM"}, "[26]": {"target": "Cyclin-dependent kinase 2/cyclin E1 (Homo sapiens) (UniProt P24864+P24941)", "assay": "Inhibition of CDK2-Cyclin E1 at 10 uM", "format": "protein-complex assay"}, "[27]": {"target": "Serine/threonine-protein kinase DCLK2 (Homo sapiens) (UniProt Q8N568)", "assay": "Inhibition of DCAMKL2 at 10 uM"}, "[28]": {"target": "Eukaryotic elongation factor 2 kinase (Homo sapiens) (UniProt O00418)", "assay": "Inhibition of EEF2K at 10 uM"}, "[29]": {"target": "Glycogen synthase kinase-3 beta (Homo sapiens) (UniProt P49841)", "sequence (P49841 whole entry, looked up)": "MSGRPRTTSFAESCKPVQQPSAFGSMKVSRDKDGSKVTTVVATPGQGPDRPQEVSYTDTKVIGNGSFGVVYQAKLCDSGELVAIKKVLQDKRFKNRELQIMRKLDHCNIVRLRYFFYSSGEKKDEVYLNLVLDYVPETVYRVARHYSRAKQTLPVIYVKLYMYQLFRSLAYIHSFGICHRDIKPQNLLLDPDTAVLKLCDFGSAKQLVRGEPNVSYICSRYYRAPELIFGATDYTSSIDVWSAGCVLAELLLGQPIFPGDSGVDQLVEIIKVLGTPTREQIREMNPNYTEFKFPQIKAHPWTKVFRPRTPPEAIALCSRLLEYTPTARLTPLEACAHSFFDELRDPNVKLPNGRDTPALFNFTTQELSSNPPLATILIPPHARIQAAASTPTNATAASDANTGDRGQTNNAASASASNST", "assay": "Inhibition of GSK3b at 10 uM"}, "[30]": {"target": "Homeodomain-interacting protein kinase 3 (Homo sapiens) (UniProt Q9H422)", "assay": "Inhibition of HIPK3 at 10 uM"}, "[31]": {"target": "Inhibitor of nuclear factor kappa-B kinase subunit beta (Homo sapiens) (UniProt O14920)", "assay": "Inhibition of IKKb at 10 uM"}, "[32]": {"target": "Dual specificity mitogen-activated protein kinase kinase 5 (Homo sapiens) (UniProt Q13163)", "assay": "Inhibition of MAP2K5 at 10 uM"}, "[33]": {"target": "Mitogen-activated protein kinase kinase kinase 1 (Homo sapiens) (UniProt Q13233)", "assay": "Inhibition of MAP3K1 at 10 uM"}, "[34]": {"target": "Mitogen-activated protein kinase kinase kinase 3 (Homo sapiens) (UniProt Q99759)", "assay": "Inhibition of MAP3K3 at 10 uM"}, "[35]": {"target": "Mitogen-activated protein kinase kinase kinase kinase 2 (Homo sapiens) (UniProt Q12851)", "sequence (Q12851 whole entry)": "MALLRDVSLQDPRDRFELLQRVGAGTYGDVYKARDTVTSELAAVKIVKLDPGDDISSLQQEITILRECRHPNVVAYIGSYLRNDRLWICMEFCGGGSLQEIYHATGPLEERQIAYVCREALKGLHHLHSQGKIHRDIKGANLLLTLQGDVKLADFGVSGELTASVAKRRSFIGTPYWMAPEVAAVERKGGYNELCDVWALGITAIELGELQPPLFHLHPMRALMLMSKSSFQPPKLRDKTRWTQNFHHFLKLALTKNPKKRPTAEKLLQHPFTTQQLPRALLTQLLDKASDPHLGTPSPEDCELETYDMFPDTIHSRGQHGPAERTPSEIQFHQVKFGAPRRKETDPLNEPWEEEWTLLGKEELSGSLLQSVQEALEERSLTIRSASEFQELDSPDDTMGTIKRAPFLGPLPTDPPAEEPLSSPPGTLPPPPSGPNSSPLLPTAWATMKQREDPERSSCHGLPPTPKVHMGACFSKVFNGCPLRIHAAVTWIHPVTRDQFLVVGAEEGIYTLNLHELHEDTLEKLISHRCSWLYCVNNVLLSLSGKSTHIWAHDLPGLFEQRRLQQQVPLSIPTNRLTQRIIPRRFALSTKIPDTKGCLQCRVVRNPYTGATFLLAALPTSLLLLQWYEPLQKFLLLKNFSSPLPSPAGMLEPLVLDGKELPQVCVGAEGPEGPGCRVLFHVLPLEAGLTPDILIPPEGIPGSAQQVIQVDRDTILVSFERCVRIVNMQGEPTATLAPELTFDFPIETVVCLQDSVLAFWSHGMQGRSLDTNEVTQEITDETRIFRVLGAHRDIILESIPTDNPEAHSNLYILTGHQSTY", "assay": "Inhibition of MAP4K2 at 10 uM"}, "[36]": {"target": "Serine/threonine-protein kinase Nek9 (Homo sapiens) (UniProt Q8TD19)", "assay": "Inhibition of NEK9 at 10 uM"}, "[37]": {"target": "Mitogen-activated protein kinase 11 (Homo sapiens) (UniProt Q15759)", "assay": "Inhibition of p38beta at 10 uM"}, "[38]": {"assay": "Inhibition of p70S6K at 10 uM"}, "[39]": {"target": "Serine/threonine-protein kinase PAK 3 (Homo sapiens) (UniProt O75914)", "sequence (O75914 whole entry, looked up)": "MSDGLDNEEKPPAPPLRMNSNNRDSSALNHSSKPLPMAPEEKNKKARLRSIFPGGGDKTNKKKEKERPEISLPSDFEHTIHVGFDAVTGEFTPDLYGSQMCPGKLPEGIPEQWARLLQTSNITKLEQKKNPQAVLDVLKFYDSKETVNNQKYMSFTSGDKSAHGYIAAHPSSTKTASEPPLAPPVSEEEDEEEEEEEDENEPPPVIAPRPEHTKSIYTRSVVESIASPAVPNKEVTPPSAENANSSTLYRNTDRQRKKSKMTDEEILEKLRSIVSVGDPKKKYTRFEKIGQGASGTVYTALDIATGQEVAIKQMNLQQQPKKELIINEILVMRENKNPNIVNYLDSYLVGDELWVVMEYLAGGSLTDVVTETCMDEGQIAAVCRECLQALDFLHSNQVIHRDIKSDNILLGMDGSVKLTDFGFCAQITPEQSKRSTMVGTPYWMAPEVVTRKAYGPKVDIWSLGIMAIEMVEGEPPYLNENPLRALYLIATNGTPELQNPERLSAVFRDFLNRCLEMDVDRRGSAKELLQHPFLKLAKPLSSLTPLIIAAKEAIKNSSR", "assay": "Inhibition of PAK3 at 10 uM"}, "[40]": {"target": "cAMP-dependent protein kinase catalytic subunit beta (Homo sapiens) (UniProt P22694)", "assay": "Inhibition of PKACb (PRKACB) at 10 uM"}, "[41]": {"target": "Protein kinase C alpha type (Homo sapiens) (UniProt P17252)", "assay": "Inhibition of PKCalpha at 10 uM"}, "[42]": {"target": "Serine/threonine-protein kinase D1 (Homo sapiens) (UniProt Q15139)", "assay": "Inhibition of PKD1 at 10 uM"}, "[43]": {"target": "Serine/threonine-protein kinase D3 (Homo sapiens) (UniProt O94806)", "assay": "Inhibition of PKD3 at 10 uM"}, "[44]": {"target": "RAF proto-oncogene serine/threonine-protein kinase (Homo sapiens) (UniProt P04049)", "assay": "Inhibition of RAF1 at 10 uM"}, "[45]": {"target": "Ribosomal protein S6 kinase alpha-1 (Homo sapiens) (UniProt Q15418)", "sequence (Q15418 whole entry)": "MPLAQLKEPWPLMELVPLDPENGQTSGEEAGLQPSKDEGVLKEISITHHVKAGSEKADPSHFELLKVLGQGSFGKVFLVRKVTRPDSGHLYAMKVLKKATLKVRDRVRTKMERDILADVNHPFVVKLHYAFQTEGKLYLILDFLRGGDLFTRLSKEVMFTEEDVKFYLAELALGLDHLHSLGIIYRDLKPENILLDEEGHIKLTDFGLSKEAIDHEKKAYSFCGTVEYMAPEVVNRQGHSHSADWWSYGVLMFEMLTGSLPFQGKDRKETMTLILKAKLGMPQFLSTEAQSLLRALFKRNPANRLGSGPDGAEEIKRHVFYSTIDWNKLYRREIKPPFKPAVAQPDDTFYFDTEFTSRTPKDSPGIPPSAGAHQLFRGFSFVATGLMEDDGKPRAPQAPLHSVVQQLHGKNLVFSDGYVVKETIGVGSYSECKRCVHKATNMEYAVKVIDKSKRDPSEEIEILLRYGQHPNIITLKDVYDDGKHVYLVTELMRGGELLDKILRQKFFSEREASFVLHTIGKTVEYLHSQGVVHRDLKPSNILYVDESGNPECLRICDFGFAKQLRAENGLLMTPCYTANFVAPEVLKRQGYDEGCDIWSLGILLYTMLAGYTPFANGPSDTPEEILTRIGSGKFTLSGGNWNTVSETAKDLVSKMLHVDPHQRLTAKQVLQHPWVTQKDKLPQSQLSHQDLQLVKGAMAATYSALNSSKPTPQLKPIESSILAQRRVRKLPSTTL", "assay": "Inhibition of RSK1 N-terminal at 10 uM"}, "[46]": {"target": "Ribosomal protein S6 kinase alpha-2 (Homo sapiens) (UniProt Q15349)", "assay": "Inhibition of RSK3 N-terminal at 10 uM"}}, "data": [{"smiles": "COc1ccc2c3ccnc(C(F)(F)F)c3n(CCCCN)c2c1", "values": [{"measurement": "CLH", "setting": "Liver", "value": 3.8, "unit": "µL/min/mg"}, {"measurement": "inhibition", "setting": "[1]", "value": 0, "unit": "%"}, {"measurement": "inhibition", "setting": "[2]", "value": 9, "unit": "%"}, {"measurement": "inhibition", "setting": "[3]", "value": 1, "unit": "%"}, {"measurement": "inhibition", "setting": "[4]", "value": 5, "unit": "%"}, {"measurement": "inhibition", "setting": "[5]", "value": 25, "unit": "%"}, {"measurement": "inhibition", "setting": "[6]", "value": 10, "unit": "%"}, {"measurement": "inhibition", "setting": "[7]", "value": 3, "unit": "%"}, {"measurement": "inhibition", "setting": "[8]", "value": 0, "unit": "%"}, {"measurement": "inhibition", "setting": "[9]", "value": 5, "unit": "%"}, {"measurement": "inhibition", "setting": "[10]", "value": 74, "unit": "%"}, {"measurement": "inhibition", "setting": "[11]", "value": 25, "unit": "%"}, {"measurement": "inhibition", "setting": "[12]", "value": 4, "unit": "%"}, {"measurement": "inhibition", "setting": "[13]", "value": 5, "unit": "%"}, {"measurement": "inhibition", "setting": "[14]", "value": 5, "unit": "%"}, {"measurement": "inhibition", "setting": "[15]", "value": 2, "unit": "%"}, {"measurement": "inhibition", "setting": "[16]", "value": 27, "unit": "%"}, {"measurement": "inhibition", "setting": "[17]", "value": 11, "unit": "%"}, {"measurement": "inhibition", "setting": "[18]", "value": 0, "unit": "%"}, {"measurement": "inhibition", "setting": "[19]", "value": 0, "unit": "%"}, {"measurement": "inhibition", "setting": "[20]", "value": 23, "unit": "%"}, {"measurement": "inhibition", "setting": "[21]", "value": 4, "unit": "%"}, {"measurement": "inhibition", "setting": "[22]", "value": 4, "unit": "%"}, {"measurement": "inhibition", "setting": "[23]", "value": 91, "unit": "%"}, {"measurement": "inhibition", "setting": "[24]", "value": 91, "unit": "%"}, {"measurement": "inhibition", "setting": "[25]", "value": 13, "unit": "%"}, {"measurement": "inhibition", "setting": "[26]", "value": 31, "unit": "%"}, {"measurement": "inhibition", "setting": "[27]", "value": 4, "unit": "%"}, {"measurement": "inhibition", "setting": "[28]", "value": 0, "unit": "%"}, {"measurement": "inhibition", "setting": "[29]", "value": 27, "unit": "%"}, {"measurement": "inhibition", "setting": "[30]", "value": 49, "unit": "%"}, {"measurement": "inhibition", "setting": "[31]", "value": 30, "unit": "%"}, {"measurement": "inhibition", "setting": "[32]", "value": 1, "unit": "%"}, {"measurement": "inhibition", "setting": "[33]", "value": 0, "unit": "%"}, {"measurement": "inhibition", "setting": "[34]", "value": 0, "unit": "%"}, {"measurement": "inhibition", "setting": "[35]", "value": 75, "unit": "%"}, {"measurement": "inhibition", "setting": "[36]", "value": 0, "unit": "%"}, {"measurement": "inhibition", "setting": "[37]", "value": 5, "unit": "%"}, {"measurement": "inhibition", "setting": "[38]", "value": 76, "unit": "%"}, {"measurement": "inhibition", "setting": "[39]", "value": 27, "unit": "%"}, {"measurement": "inhibition", "setting": "[40]", "value": 41, "unit": "%"}, {"measurement": "inhibition", "setting": "[41]", "value": 26, "unit": "%"}, {"measurement": "inhibition", "setting": "[42]", "value": 85, "unit": "%"}, {"measurement": "inhibition", "setting": "[43]", "value": 92, "unit": "%"}, {"measurement": "inhibition", "setting": "[44]", "value": 0, "unit": "%"}, {"measurement": "inhibition", "setting": "[45]", "value": 27, "unit": "%"}, {"measurement": "inhibition", "setting": "[46]", "value": 36, "unit": "%"}]}]}
